Data reported in the NIST ThermoML archive (doi:10.1021/acs.jced.8b00081).
± gives the expanded uncertainty stated by the source.

Assay: wn = mass fraction of the nth substance listed
Settings: 88.35 kPa, Liquid, Pycnometric method

mass density (298.15 K, w1 = 0.2672): 1180 ± 12 kg/m3
mass density (313.15 K, w1 = 0.29): 1192 ± 12 kg/m3
Structure (SMILES): [Cl-].[K+] [potassium chloride] + O
